Measured values published in publication PMC10052880 (Phytomedicine, 2023).

Experiments:
SARS-CoV-2 3CL^pro [1] = biological target: T1, SARS-CoV-2 3CL^pro (Severe acute respiratory syndrome coronavirus 2, UniProt P0DTD1); experiment: biochemical
SARS-CoV-2 3CL^pro [2] = biological target: T1, SARS-CoV-2 3CL^pro; experiment: Inactivation kinetic analyses against SARS-CoV-2 3CL^pro; type: biochemical
[3] = IC50 (μM) 3 min, 3 min preincubation
[4] = IC50 (μM) 63 min, 63 min preincubation

| Structure (SMILES) | Ratio (SARS-CoV-2 3CL^pro [1]) | IC50 (SARS-CoV-2 3CL^pro [1]; [3]) | IC50 (SARS-CoV-2 3CL^pro [1]; [4]) | Ki (SARS-CoV-2 3CL^pro [2]) | kinact (SARS-CoV-2 3CL^pro [2]; read-out: Kinact (min^−1)) |
| --- | --- | --- | --- | --- | --- |
| O=c1cc(-c2ccc(O)c(-c3c(O)cc(O)c4c(=O)cc(-c5ccc(O)cc5)oc34)c2)oc2cc(O)cc(O)c12 [amentoflavone] | 1.92 | 82.1 µM | 42.9 µM |  |  |
| O=c1cc(-c2ccc(O)cc2)oc2cc(O)cc(O)c12 [apigenin] | 3.62 | 115 µM | 31.7 µM |  |  |
| COc1ccc(-c2cc(=O)c3c(O)cc(O)cc3o2)cc1-c1c(O)cc(O)c2c(=O)cc(-c3ccc(O)cc3)oc12 [bilobetin] | 3.54 | 32.1 µM | 9.06 µM |  |  |
| Oc1cc(O)c2c(c1)O[C@H](c1ccc(O)c(O)c1)[C@H](O)C2 [epicatechin] | 6.22 | 70.6 µM | 11.3 µM |  |  |
| Oc1cc(O)c2c(c1)O[C@H](c1cc(O)c(O)c(O)c1)[C@@H](O)C2 [gallocatechin] | 3.30 | 3.23 µM | 0.98 µM | 2.52 µM | 0.03 min⁻¹ |
| COc1cc(O)c2c(=O)cc(-c3ccc(OC)c(-c4c(O)cc(O)c5c(=O)cc(-c6ccc(O)cc6)oc45)c3)oc2c1 [ginkgetin] | 10.32 | 76.5 µM | 7.42 µM |  |  |
| COc1ccc(-c2cc(=O)c3c(O)cc(O)c(-c4cc(-c5cc(=O)c6c(O)cc(O)cc6o5)ccc4OC)c3o2)cc1 [isoginkgetin] | 2.01 | 70.8 µM | 35.2 µM |  |  |
| O=c1cc(-c2ccc(O)c(O)c2)oc2cc(O)cc(O)c12 [luteolin] | 10.57 | 195 µM | 18.4 µM |  |  |
